In data set [1] the target is T1, CD4 on PBL (Homo sapiens, UniProt P01730).
T1 construct: Human peripheral blood lymphocytes (PBL) were prepared by density gradient centrifugation; endogenous in cells; host or cells: human peripheral blood lymphocytes (PBL)
In words: Inhibition of binding of αCD4-FITC (anti-Leu3a) to PBL, flow cytometry. Particulars: for remaining activity at 7 µM: compound 7 μM. Here is the method: (§1) Human peripheral blood lymphocytes (PBL) were prepared by density gradient centrifugation as previously described (Weaver et al., 1990). The effect of drugs on the binding of anti-CD4-FITC (αCD4), anti-CD3-FITC (αCD3), anti-CD8-FITC (αCDS), or HIV coat protein rgp120 was measured as previously described (Weaver et al., 1990). Briefly, cells were treated with a drug (10' RT) and then FITC labeled antibody or rgp120 followed by anti-rgp120-FITC. Binding was measured by quantitating cell bound fluorescence using flow cytometry. Some binding assays were run in phenol red free RPMI 1640/5% serum instead of the usual PBS to determine effectiveness under cell culture conditions.
Since anti-Leu3a (αCD4) and rgp120 bind to the same site on the CD4 molecule, interference in binding of αCD4 can be used to screen compounds for possible anti-HIV activity. EB or ATA are used as positive controls since they have been shown previously to block eCD4 and rpg120 binding (Weaver et al, "Polyionic compounds selectively alter availability of CD4 receptors for HIV coat protein rgp120," AIDS Res. Human Retrovir. 6 1125-1130 (1990)). […] Six of the dyes tested show significant ability to block αCD4 binding. Three compounds, Acid Blue 116, Acid Red 115, and Direct Red 79 were selected for more complete analysis.
For orientation: A flow cytometer gives signals particle by particle.

A short description of data set [2]: Viability of PBL after 72 hr culture (propidium iodide exclusion). The settings on record: human, PBL, 72 hr culture, untreated 90, read-out: % Viable Cells. Format: cell-based, human. Here is the method: (§2) The effect of compounds on the viability of PBL was determined after culturing PBL for 72 hr at 37° C. Some cells were stimulated with 1 μl/ml of anti-T-cell receptor antibody for this time period. Cells were then washed 1× in PBS and resuspended in PBS with 3 μg/ml propidium iodide. After 10 min incubation cells were analyzed by flow cytometry. Live cells were defined as those excluding propidium iodide.

Data set [3] deals with PBL. The description is as above. Format: cell-based, human. The settings on record: 72 hr of continuous culture. Here is the method: as §2
For data set [4], the system named is HIV isolate LAV-1BR in PHA stimulated human PBL. In words: Production of intracellular HIV p24 measured by ELISA. Format: cell-based. Particulars: for pg/ml HIV p24: intracellular p24, ELISA, DMSO control 1222. Here is the method: (§3) The effect of various drugs on growth of HIV isolate LAV-1BR in PHA stimulated human PBL was measured using two assays. Reverse transcriptase activity was measured in disrupted virions from the cell free supernatant as previously described (Anand et al, "Interaction between rifabutin and human immunodeficiency virus type-1: inhibition of replication, cytopathic effect and reverse transcriptase in vitro," Antimicrob. Agents Chemother. 32 684-688 (1988)).

Data set [5] has the same test system. As to the kind of experiment: microbe, parasite or virus in culture. Format: cell-based. Particulars: for CPM RT: [3H]-TTP incorporated by reverse transcriptase, DMSO control 6338. Here is the method:
as §3

Data set [6] concerns αCD8 binding to PBL. As to the kind of experiment: Specificity: binding of αCD8-FITC to PBL. Particulars: for % Control Binding αCD8: αCD8-FITC binding in PBS, 10 min. On the set-up: species or system human. Here is the method: as §1
(§4) We have analyzed the specificity of these compounds by testing their ability to interfere with the binding of two other monoclonal antibodies, αCD3 and αCD8. […] The increase in binding of αCD3 on Direct Red 79 treated cells may reflect nonspecific binding.

The subject of data set [7] is anti-TCR stimulated PBL. As to the kind of experiment: Viability of PBL after 72 hr culture with anti-TCR stimulation (propidium iodide exclusion). Format: cell-based, human. Particulars: Table 5. Here is the method:
as §2

Assay in data set [8]: as above
Format: cell-based, human. The settings on record: human, anti-tcr stimulated pbl; PBL, 72 hr culture with anti-TCR stimulation, 100 μM; untreated 78; read-out: % Viable Cells. Here is the method:
as §2

For data set [9], the target named is T2, αCD3 binding to PBL (Homo sapiens, UniProt P07766).
T2 construct: Human peripheral blood lymphocytes (PBL) were prepared by density gradient centrifugation; endogenous in cells; host or cells: human peripheral blood lymphocytes (PBL)
In words: Specificity: binding of αCD3-FITC to PBL. On the procedure: as §1, §4

The target in data set [10] is T3, binding of HIV rgp120 to CD4 on peripheral blood lymphocytes (Homo sapiens, UniProt P01730).
T3 construct: Human peripheral blood lymphocytes (PBL) were prepared by density gradient centrifugation; endogenous in cells; host or cells: human peripheral blood lymphocytes (PBL)
In words: Inhibition of HIV rgp120 binding to PBL, detected with anti-rgp120-FITC, flow cytometry. The settings on record: 10 min, rgp120 binding detected by αrgp120-FITC in PBS, % logarithmic mean channel number. On the procedure:
as §1
The results shown in Table 2 confirm that the three dyes selected on the basis of their interference with αCD4 binding can also block binding of rgp120. Their relative efficacy appears to be similar in both assays.

Data set [11] in a line: Binding to serum proteins. Format: in vitro ADME. The settings on record: not shown.
Data set [12] is described as follows: Solubility in aqueous solutions. Format: physicochemical. The settings on record: concentrations needed for efficacy in the presence of serum.
[13] abbreviates: 10 min, αCD4-FITC binding to PBL in PBS, % logarithmic mean channel number, compound 10 μM, read-out: % Control Binding.
The mark [14] stands for this setting: 10 min, αCD4-FITC binding to PBL in PBS, % logarithmic mean channel number, read-out: % Control Binding.

T2 sequence (P07766 23-207): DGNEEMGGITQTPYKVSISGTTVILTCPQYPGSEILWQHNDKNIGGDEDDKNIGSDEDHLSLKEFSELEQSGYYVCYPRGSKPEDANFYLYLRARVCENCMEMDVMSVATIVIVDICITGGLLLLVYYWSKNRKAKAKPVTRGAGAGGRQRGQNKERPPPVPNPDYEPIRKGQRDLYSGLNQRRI
T2 sequence (P04234 22-171 partner): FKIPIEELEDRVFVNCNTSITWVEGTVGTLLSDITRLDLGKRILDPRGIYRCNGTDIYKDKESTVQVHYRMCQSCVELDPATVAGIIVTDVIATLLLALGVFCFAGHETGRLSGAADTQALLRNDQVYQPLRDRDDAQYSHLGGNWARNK
T2 sequence (P09693 23-182 partner): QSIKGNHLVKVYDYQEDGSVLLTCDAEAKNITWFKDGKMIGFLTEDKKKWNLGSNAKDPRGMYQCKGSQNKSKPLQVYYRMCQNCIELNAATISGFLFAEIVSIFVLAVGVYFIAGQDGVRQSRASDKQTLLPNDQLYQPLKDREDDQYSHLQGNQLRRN
T2 sequence (P20963 22-164 partner): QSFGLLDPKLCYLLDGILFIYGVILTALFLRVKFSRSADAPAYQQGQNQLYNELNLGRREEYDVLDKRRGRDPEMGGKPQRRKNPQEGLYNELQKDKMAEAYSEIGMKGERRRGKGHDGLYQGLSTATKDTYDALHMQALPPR

For the compound `COc1cc(N=Nc2cc(S(=O)(=O)O)cc3cc(S(=O)(=O)O)cc(O)c23)c(C)cc1NC(=O)Nc1cc(C)c(N=Nc2cc(S(=O)(=O)O)cc3cc(S(=O)(=O)O)cc(O)c23)cc1OC` [Direct Red 79, C.I. Direct Red 79], the remaining activity at 20 µM in data set [1] (10 min, Table 3, αCD4-FITC binding in PBS, compound 20 μM, read-out: % Control Binding αCD4) came to 22%. Also, in [1] (setting [13]), the remaining activity at 10 µM turned out to be 13%. The viability at 72 h, 400 µM in data set [2] (400 μM) stood at 89%. Besides, in [3], the “effect on the viability of PBL (in words)” value was “no effect”. In addition, the “p24 production (in words)” value in data set [4] (intracellular HIV p24 protein) is recorded as “strongly decrease”. Also, the “pg/ml HIV p24” value in [4] (5 μg/ml) amounted to 333 pg/mL. Further, the inhibition (commonly how much of the control response was suppressed) at 100 µM in [5] (Human immunodeficiency virus 1, 144 h, HIV reverse transcriptase activity, six day culture, 100 μM) turned out to be 97%. The “CPM RT” value in data set [5] (six day culture, 100 μM) is listed as 145 CPM. For the same compound, the “production of reverse transcriptase activity (in words)” value in data set [5] (after six days of culture) is given as “strongly inhibit”. The “effect on binding of αCD8 (in words)” value in [6] (Table 3) is listed as “does not affect binding”. The “% Control Binding αCD8” value in data set [6] (compound 20 μM) came to 106%. Moreover, in data set [7], the “effect on the proliferation of αTCR stimulated PBL (in words)” value is “limited effect”. For the same compound, the viability at 72 h, 100 µM in [8] was determined as 54%. For the same compound, the αCD3 binding, % of control at 20 µM in [9] (10 min, αCD3-FITC binding in PBS, compound 20 μM) came to 124%. For the same compound, in [9] (Table 3), the “effect on binding of αCD3 (in words)” value is reported as “does not affect binding”. Moreover, the remaining rgp120 binding (% of control) at 10 µM in data set [10] (compound 10 μM) came out at 30%.
For the compound `Cc1cc(NC(=O)Nc2ccc(N=Nc3cc(S(=O)(=O)O)c4cccc(S(=O)(=O)O)c4c3)c(C)c2)ccc1N=Nc1cc(S(=O)(=O)O)c2cccc(S(=O)(=O)O)c2c1` [Direct Yellow 50, reference compound], the remaining activity at 50 µM in data set [1] (10 min, αCD4-FITC binding to PBL in PBS, % logarithmic mean channel number, compound 50 μM, read-out: % Control Binding) came to 42%.
Take `Nc1ccc2cc(S(=O)(=O)O)cc(O)c2c1N=Nc1ccc(NC(=O)Nc2ccc(N=Nc3c(N)ccc4cc(S(=O)(=O)O)cc(O)c34)c(S(=O)(=O)O)c2)cc1S(=O)(=O)O` [Direct Red 75, C.I. Direct Red 75]: the remaining activity at 10 µM in data set [1] (setting [13]) is 70%.
With `COc1cc(-c2ccc(N=Nc3ccc4c(S(=O)(=O)[O-])cc(S(=O)(=O)[O-])c(N)c4c3O)c(OC)c2)ccc1N=Nc1ccc2c(S(=O)(=O)[O-])cc(S(=O)(=O)[O-])c(N)c2c1O.[Na+].[Na+].[Na+].[Na+]` [Direct Blue 1, C.I. Direct Blue 1], in [1] (αCD4-FITC binding to PBL in PBS, % logarithmic mean channel number, compound 10 μM), the “% Control Binding” value is listed as 1%.
For `O=C(Nc1ccc(N=Nc2ccc(O)c(C(=O)O)c2)cc1)Nc1ccc(N=Nc2ccc(O)c(C(=O)O)c2)cc1` [Direct Yellow 26, C.I. Direct Yellow 26], the remaining activity at 12 µM in data set [1] (10 min, αCD4-FITC binding to PBL in PBS, % logarithmic mean channel number, compound 12 μM, read-out: % Control Binding) is 84%.
`O=C(O)C1=CC(=C(c2ccc(O)c(C(=O)O)c2)c2ccc(O)c(C(=O)O)c2)C=CC1=O` [ATA, aurin tricarboxlyic acid, reference compound]: the “binding to serum proteins (in words)” value in data set [11] was “does not bind to serum proteins”. Moreover, the viability at 72 h, 10 µM in data set [2] (10 μM) turned out to be 86%. The “pg/ml HIV p24” value in data set [4] (0.25 μg/ml) was found to be 111 pg/mL; in data set [4] (2.5 μg/ml) it was 0 pg/mL. Besides, in data set [5] (Human immunodeficiency virus 1, 144 h, HIV reverse transcriptase activity, six day culture, 1 μM), the inhibition at 1 µM was 97%. Further, in data set [5] (six day culture, 1 μM), the “CPM RT” value is listed as 109 CPM.
Turning to `O=S(=O)(O)c1cccc(N=Nc2c(O)ccc3cc(S(=O)(=O)O)cc(S(=O)(=O)O)c23)c1` [FD1], in [1] (10 min, αCD4-FITC binding to PBL in PBS, % logarithmic mean channel number, compound 5 μM, read-out: % Control Binding), the remaining activity at 5 µM is 102%.
In the case of `Cc1cc(-c2cc(C)c(N=Nc3c(O)ccc4ccccc34)cc2S(=O)(=O)O)c(S(=O)(=O)O)cc1N=Nc1c(O)ccc2ccccc12` [Acid Red 89, C.I. Acid Red 89], in data set [1] (setting [14]), the remaining activity at 7 µM stood at 6%.
As to `Cc1ccccc1N=Nc1ccc(N=Nc2c(O)c(S(=O)(=O)[O-])cc3cc(S(=O)(=O)[O-])ccc23)c(C)c1.[Na+].[Na+]` [Acid Red 115, C.I. Acid Red 115], the “solubility in aqueous solutions (in words)” value in data set [12] is given as “near their limits of solubility”. Further, in data set [1] (Table 3, αCD4-FITC binding in PBS, compound 6 μM, 10 min), the “% Control Binding αCD4” value is 2%. In addition, the “% Control Binding” value in [1] (αCD4-FITC binding to PBL in PBS, % logarithmic mean channel number, compound 6 μM, 10 min) was found to be 2%; in data set [10] (compound 6 μM) it was 10%. The “% Control Binding αCD8” value in data set [6] (compound 6 μM) is reported as 90%. For the same compound, the “effect on binding of αCD3 (in words)” value in data set [9] (Table 3) is reported as “interferes with αCD3”. For the same compound, in [9] (αCD3-FITC binding in PBS, compound 6 μM, 10 min), the “% Control Binding αCD3” value is recorded as 41%.
In the case of `O=S(=O)(O)c1ccc2c(N=Nc3ccccc3)ccc(N=Nc3ccc(Nc4ccccc4)c4c(S(=O)(=O)O)cccc34)c2c1` [Acid Blue 116, C.I. Acid Blue 116], the “solubility in aqueous solutions (in words)” value in data set [12] was “near their limits of solubility”. Also, the remaining activity at 4 µM in [1] (10 min, Table 3, αCD4-FITC binding in PBS, compound 4 μM, read-out: % Control Binding αCD4) came to 1%. In addition, in data set [1] (setting [14]), the remaining activity at 7 µM came out at 0%. Further, in data set [6] (Table 3), the “reduction of binding of αCD8 (fraction)” value was “about 1/2”. In addition, the “% Control Binding αCD8” value in [6] (compound 4 μM) is on record as 54%. Also, in data set [9] (10 min, αCD3-FITC binding in PBS, compound 4 μM), the αCD3 binding, % of control at 4 µM was found to be 44%. Also, the “reduction of binding of αCD3 (fraction)” value in [9] (Table 3) is listed as “about 1/2”. The compound further came in with a remaining rgp120 binding (% of control) at 7 µM in [10] (compound 7 μM) of 9%.

The record behind these values is US5650441A, “Method of assaying CD4 glycoproteins by using certain azo dyes” (The United States of America, as represented by the …, priority 1994, dated 1997).
